IC50 data for 23 compounds are collected here from US9353101B2 (Merck Sharp & Dohme Corp., priority 2012, dated 2016).

Sequence of CETP (P11597 18-493 limits assumed): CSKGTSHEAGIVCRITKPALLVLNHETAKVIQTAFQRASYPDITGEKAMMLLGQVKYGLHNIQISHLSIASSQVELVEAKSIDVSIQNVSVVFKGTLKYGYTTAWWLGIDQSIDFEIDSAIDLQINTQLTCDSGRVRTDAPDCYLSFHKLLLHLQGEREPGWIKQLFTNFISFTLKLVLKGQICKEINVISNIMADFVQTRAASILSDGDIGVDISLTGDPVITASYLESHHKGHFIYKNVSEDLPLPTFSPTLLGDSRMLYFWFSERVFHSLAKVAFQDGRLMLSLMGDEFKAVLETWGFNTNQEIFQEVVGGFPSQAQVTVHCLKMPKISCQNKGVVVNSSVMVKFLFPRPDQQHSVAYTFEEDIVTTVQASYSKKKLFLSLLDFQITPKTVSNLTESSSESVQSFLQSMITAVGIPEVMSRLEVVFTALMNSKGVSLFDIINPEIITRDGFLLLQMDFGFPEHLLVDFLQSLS

In the assay the target is CETP (Homo sapiens (Human), UniProt P11597). The assay is described as follows: In vitro radioactive assay of CETP-catalyzed CE and TG transfer (RTA assay), 95% human serum. The assay is classed as biochemical. Particulars: RTA assay in 95% human serum; read-out: RTA IC50 (CETP Inhibition). Here is the method:
In Vitro Radioactive Assays of CETP-Catalyzed CE and TG Transfer (RTA Assay)
Reagents and sources are: [3H] cholesteryl oleate (GE #TRK.886), [3H] Triolein (Perkin-Elmer NET-431), Butylated hydroxyl toluene (Aldrich, #D4740-4), DOPC (Sigma, # P6354), Sodium Bromide (Fisher scientific #S255-500), PEG 8000 (Fisher, #BP233-1), and human HDL (Intracel Corp #RP-036).
An in vitro assay for determining IC50's to identify compounds that inhibit CETP transfer activity is performed based on a modification of a published method (Morton and Zilversmit, (1981) A plasma inhibitor of triglyceride and cholesteryl ester transfer activities, J. Biol. Chem. 256(23), 11992-11995). The ability of inhibitors to alter CETP activity is performed using two different assays: one using recombinant CETP and one using an endogenous plasma source of CETP. Both assays measure the transfer of [3H] cholesteryl oleate or [3H] triolein from exogenous LDL to HDL.
Radiolabeled donor particles are generated by first combining 100 μl of 200 μM butylated hydroxyl toluene in CHCl3, 216 μL of 21.57 mM DOPC in EtOH, and either 500 μCi [3H]-triolein (Perkin Elmer #NET-431) or 500 μCi [3H]-cholesteryl oleate (GE #TRK886) in a glass tube. Reagents are mixed, dried under nitrogen, and then resuspended in 2 mL of 50 mM Tris, 27 μM EDTA at pH 7.4. After a brief vortex, the solution is sonicated until clear and mixed with 20 mL of fresh human serum. The mixture is incubated overnight at 37° C. The [3H] labeled LDL substrate is separated at 1.063 g/ml density by sequential ultracentrifugal flotation in NaBr according to the method by (Havel, Eder et al. 1955; Chapman, Goldstein et al. 1981). Once isolated the particles are dialyzed 3× in CETP buffer (50 mM Tris, pH 7.4, 100 mM NaCl, 1 mM EDTA). Human HDL is purchased from Intracel and used as the acceptor particles.
Transfer assays are performed in a 96 or 384-well v-bottom polypropylene plate. For the RTA using recombinant CETP (2% RTA), an assay cocktail is prepared with the final concentrations 128 μg/mL HDL, 20 nM rCETP, 2% human serum, and 1×CETP buffer. 1 μL of each test compound diluted in DMSO is added to 47 μL of assay cocktail per well and incubated at 37° C. for 1 hour. To initiate the transfer reaction, 2 μL radiolabeled LDL is added. After an additional 60 min of incubation at 37° C., the transfer action is terminated by precipitation of LDL with an equal volume of 20% W/V PEG 8000. The plates are centrifuged at 2000 rpm for 30 minutes at 4° C. A 40 μL aliquot of the HDL-containing supernatant is transferred to a Packard Optiplate™ with 200 μL of MicroScint™ 20. After mixing, plates are counted by liquid scintillation. Counts present in the supernatant for blanks (wells containing only HDL acceptor, CETP buffer and DMSO) are subtracted from those containing test compounds and used to correct for non-specific transfer.
For the transfer assay using endogenous CETP from serum (95% RTA), the same procedure is used except that human serum is added such that a final concentration of serum of 95% of the total assay volume is achieved, yielding a concentration of approximately 15 nM endogenous CETP in the assay. This is then combined with HDL and CETP buffer and the reaction proceeds as above and is terminated as described.
Comparison of the counts of samples with inhibitors to an uninhibited (DMSO only) positive control yield a percent inhibition. A plot of percent inhibition vs. log of inhibitor concentration, fit to a Sigmoidal 4 parameter equation is used to calculate IC50.
Starting materials are commercially available or are made using known procedures or as shown below. The examples may be synthesized using the general schemes provided below. The data reported for the examples below were obtained using the RTA assay in 95% human serum.
For orientation: IC50 means the concentration at which inhibition is half-maximal. On to `COc1ncc(C(C)(O)C(F)(F)F)cc1-c1cnc(N2CC(F)C2)nc1CN1C(=O)O[C@H](c2cc(C(F)(F)F)cc(C(F)(F)F)c2)[C@@H]1C` (mixture of isomers) [Example 16, (4S,5R)-5-[3,5-Bis(trifluoromethyl)phenyl]-3-{[2-(3-fluoroazetidin-1-yl)-5-{2-methoxy-5-[(2RS)-1,1,1-trifluoro-2-hydroxypropan-2-yl]pyridin-3-yl}pyrimidin-4-yl]methyl}-4-methyl-1,3-oxazolidin-2-one], for which the IC50 was found to be 14 nM.
For `COc1ncc(-c2sc(C)nc2C)cc1-c1cnc(N2CC(F)C2)nc1CN1C(=O)O[C@H](c2cc(C(F)(F)F)cc(C(F)(F)F)c2)[C@@H]1C` [Example 3, (4S,5R)-5-[3,5-Bis(trifluoromethyl)phenyl]-3-({5-[5-(2,4-dimethyl-1,3-thiazol-5-yl)-2-methoxypyridin-3-yl]-2-(3-fluoroazetidin-1-yl)pyrimidin-4-yl}methyl)-4-methyl-1,3-oxazolidin-2-one], the IC50 was found to be 3 nM.
Regarding `COc1ncc(-c2c(C)nn(C)c2C)cc1-c1cnc(N2CC(F)C2)nc1CN1C(=O)O[C@H](c2cc(C(F)(F)F)cc(C(F)(F)F)c2)[C@@H]1C` [Example 6], the IC50 was 3 nM.
For `COc1ncc(-c2c(C)noc2C)cc1-c1cnc(N2CC(F)C2)nc1CN1C(=O)O[C@H](c2cc(C(F)(F)F)cc(C(F)(F)F)c2)[C@@H]1C` [Example 7], the IC50 came to 3 nM.
For `COc1ncc(CCC(=O)O)cc1-c1cnc(N2CC(F)C2)nc1CN1C(=O)O[C@H](c2cc(C(F)(F)F)cc(C(F)(F)F)c2)[C@@H]1C` [Example 8], the IC50 amounted to 92 nM.
Consider `COc1ncc(C(F)(F)F)cc1-c1cnc(N2CC(F)C2)nc1CN1C(=O)O[C@H](c2cc(C(F)(F)F)cc(C(F)(F)F)c2)[C@@H]1C` [Example 9, (4S,5R)-5-[3,5-Bis(trifluoromethyl)phenyl]-3-({2-(3-fluoroazetidin-1-yl)-5-[2-methoxy-5-(trifluoromethyl)pyridin-3-yl]pyrimidin-4-yl}methyl)-4-methyl-1,3-oxazolidin-2-one], for which the IC50 amounted to 14 nM.
`CCOc1ncc(C(F)(F)F)cc1-c1cnc(N2CC(F)C2)nc1CN1C(=O)O[C@H](c2cc(C(F)(F)F)cc(C(F)(F)F)c2)[C@@H]1C` [Example 10]: the IC50 stood at 12 nM.
On to `COc1ncc(C(C)C)cc1-c1cnc(N2CC(F)C2)nc1CN1C(=O)O[C@H](c2cc(F)cc(F)c2)[C@@H]1C` [Example 14, (4S,5R)-5-(3,5-Difluorophenyl)-3-{[2-(3-fluoroazetidin-1-yl)-5-(5-isopropyl-2-methoxypyridin-3-yl)pyrimidin-4-yl]methyl}-4-methyl-1,3-oxazolidin-2-one], for which the half-inhibitory concentration (IC50) amounted to 16 nM.
For `COc1ncc(-c2c(C)n[nH]c2C)cc1-c1cnc(N2CC(F)C2)nc1CN1C(=O)O[C@H](c2cc(C(F)(F)F)cc(C(F)(F)F)c2)[C@@H]1C` [Example 17, (4S,5R)-5-[3,5-Bis(trifluoromethyl)phenyl]-3-({5-[5-(3,5-dimethyl-1H-pyrazol-4-yl)-2-methoxypyridin-3-yl]-2-(3-fluoroazetidin-1-yl)pyrimidin-4-yl}methyl)-4-methyl-1,3-oxazolidin-2-one] the value was 5 nM; for `CCCn1nc(C)c(-c2cnc(OC)c(-c3cnc(N4CC(F)C4)nc3CN3C(=O)O[C@H](c4cc(C(F)(F)F)cc(C(F)(F)F)c4)[C@@H]3C)c2)c1C` [Example 18, (4S,5R)-5-[3,5-Bis(trifluoromethyl)phenyl]-3-({5-[5-(3,5-dimethyl-1-propyl-1H-pyrazol-4-yl)-2-methoxypyridin-3-yl]-2-(3-fluoroazetidin-1-yl)pyrimidin-4-yl}methyl)-4-methyl-1,3-oxazolidin-2-one], 12 nM; for `CCn1nc(C)c(-c2cnc(OC)c(-c3cnc(N4CC(F)C4)nc3CN3C(=O)O[C@H](c4cc(C(F)(F)F)cc(C(F)(F)F)c4)[C@@H]3C)c2)c1C` [Example 19], 9 nM.
For `COc1ncc(-c2c(C)nn(CC#N)c2C)cc1-c1cnc(N2CC(F)C2)nc1CN1C(=O)O[C@H](c2cc(C(F)(F)F)cc(C(F)(F)F)c2)[C@@H]1C` [Example 21], the IC50 was found to be 18 nM.
As for `COc1ncc(-c2c(C)nn(CC(N)=O)c2C)cc1-c1cnc(N2CC(F)C2)nc1CN1C(=O)O[C@H](c2cc(C(F)(F)F)cc(C(F)(F)F)c2)[C@@H]1C` [Example 22], the IC50 was found to be 22 nM.
Take `COc1ncc(-c2c(C)n[nH]c2C)cc1-c1cnc(N2CC(F)(F)C2)nc1CN1C(=O)O[C@H](c2cc(C(F)(F)F)cc(C(F)(F)F)c2)[C@@H]1C` [Example 23, (4S,5R)-5-[3,5-Bis(trifluoromethyl)phenyl]-3-({2-(3,3-difluoroazetidin-1-yl)-5-[5-(3,5dimethyl-1H-pyrazol-4-yl)-2-methoxypyridin-3-yl]pyrimidin-4-yl}methyl)-4-methyl-1,3-oxazolidin-2-one]: the IC50 was 15 nM.
Regarding `COc1ncc(-c2c(C)n[nH]c2C)cc1-c1cnc(N2CC(O)C2)nc1CN1C(=O)O[C@H](c2cc(C(F)(F)F)cc(C(F)(F)F)c2)[C@@H]1C` [Example 24], the IC50 worked out at 332 nM.
Consider `COc1ncc(-c2c(C)n[nH]c2C)cc1-c1cnc(N2CCCC2)nc1CN1C(=O)O[C@H](c2cc(C(F)(F)F)cc(C(F)(F)F)c2)[C@@H]1C` [Example 25], for which the 50% inhibitory concentration (IC50) came to 20 nM.
With `COc1ncc(-c2c(C)n[nH]c2C)cc1-c1cnc(N2CCOCC2)nc1CN1C(=O)O[C@H](c2cc(C(F)(F)F)cc(C(F)(F)F)c2)[C@@H]1C` [Example 26], the IC50 amounted to 23 nM.
For `COc1ncc(-c2c(C)n[nH]c2C)cc1-c1cnc(N2CCC2)nc1CN1C(=O)O[C@H](c2cc(C(F)(F)F)cc(C(F)(F)F)c2)[C@@H]1C` [Example 27] the value was 19 nM; for `COc1ncc(C(C)C)cc1-c1cnc(N2CC(F)(F)C2)nc1CN1C(=O)O[C@H](c2cc(C(F)(F)F)cc(C(F)(F)F)c2)[C@@H]1C` [Example 28, (4S,5R)-5-[3,5-Bis(trifluoromethyl)phenyl]-3-{[2-(3,3-difluoroazetidin-1-yl)-5-(5-isopropyl-2-methoxypyridin-3-yl)pyrimidin-4-yl]methyl}-4-methyl-1,3-oxazolidin-2-one], 5 nM.
For `COc1ncc(C(C)C)cc1-c1cnc(N2[C@H](C)CC[C@H]2C)nc1CN1C(=O)O[C@H](c2cc(C(F)(F)F)cc(C(F)(F)F)c2)[C@@H]1C` [Example 29], the concentration for half-maximal inhibition (IC50) stood at 430 nM.
As for `COc1ncc(C(C)C)cc1-c1cnc(N2CCC[C@@H]2C)nc1CN1C(=O)O[C@H](c2cc(C(F)(F)F)cc(C(F)(F)F)c2)[C@@H]1C` [Example 30], the 50% inhibitory concentration (IC50) was 18 nM.
For `COc1ncc(C(C)C)cc1-c1cnc(N2CCC2)nc1CN1C(=O)O[C@H](c2cc(C(F)(F)F)cc(C(F)(F)F)c2)[C@@H]1C` [Example 31] the value was 5 nM; for `COc1ncc(-c2c(C)cc(C(=O)O)cc2C)cc1-c1cnc(N2CC(F)C2)nc1CN1C(=O)O[C@H](c2cc(C(F)(F)F)cc(C(F)(F)F)c2)[C@@H]1C` [Example 32, 4-{5-[4-({(4S,5R)-5-[3,5-Bis(trifluoromethyl)phenyl]-4-methyl-2-oxo-1,3-oxazolidin-3-yl}methyl)-2-(3-fluoroazetidin-1-yl)pyrimidin-5-yl]-6-methoxypyridin-3-yl}-3,5-dimethylbenzoic acid], 7 nM.
